Entries after “also recorded” stand apart in the source; their conditions may differ.

We go through one compound from patent US10471076B2, “Compositions and methods to treat vision disorders” (YouHealth Biotech, Limited, priority 2014, dated 2019).

In test [1] the test system is cataract-causing mutant crystallin proteins. Description: Intracellular aggregation of mutant crystallins in HeLa cells. It counts as cell-based, human. Conditions: then 12 h. How it is done:
FIG. 9A, FIG. 9B, and FIG. 9C show inhibition of crystallin mutant aggregation by wild-type LSS and lanosterol in HLEB-3 cells (FIG. 9A) or HeLa cells (FIG. 9B). Cells co-transfected with LSS and crystallin mutant constructs were cultured for 24 h before assaying for aggregates. The rescue experiments were performed by addition of 40 […] μM sterols (lanosterol or cholesterol) to the cell culture medium for 2 h, the sterol medium was then replaced with fresh culture medium and the cells were cultured for a further 12 h. The percentage of cells with crystallin aggregates were calculated from ten randomly selected viewing fields. The values of the wild-type LSS group, mutant group, or mutant plus lanosterol group were calculated. […] After transfection for 4 h and incubation in fresh culture medium for another 24 h, the cells were lysed and centrifuged to separate supernatant and insoluble fractions. LSS and crystallin fusion proteins were detected by antibodies against Flag and GFP, respectively. Red arrows indicate higher crystalline content in the soluble fraction versus in the insoluble fraction in cells containing the WT-LSS.
Cells were transfected with various crystallin constructs for 4 h and cultured for an additional 24 h in fresh culture medium. Then the cells were treated with 10, 20 and 40 μM lanosterol in 1% (HLEB-3 cells) or 2% DMSO (HeLa cells) for 2 h and cultured for another 12 h. Cells treated with 1% (HLEB-3 cells) or 2% DMSO (HeLa cells) were used as the controls. Formation of intracellular aggregates of various crystallin proteins was visualized by fluorescence of GFP (green) and the nuclei were stained with Hoechst 33342 (blue). Typical intracellular aggregates are indicated by arrows.
The impact of LSS and lanosterol on intracellular crystallin aggregation were evaluated in single-blinded observer studies. Experiments have been repeated at least three times. P values were calculated using Student's t-tests. Fluorescence microscopy. […]

The test system of test [2] is cataract-causing mutant crystallins. Description: Western blot of soluble and insoluble fractions of cell lysates. It counts as cell-based. Conditions: human lens progenitor cells, n=3, P<0.001. The text has this: The cells were harvested and lysed. Supernatant and insoluble fractions were separated by centrifugation and analyzed by western blot analysis. LSS and crystallin fusion proteins were identified by antibodies against Flag and GFP tags, respectively. The lanosterol-treated group is highlighted by red boxes. Cells treated with 1% DMSO were used as a control. β-Actin was used as an internal protein loading control of total cell lysates (TCL). S, supernatant; P, insoluble fraction. […] Crystallin aggregates were formed by incubating 5 mg ml^−1 protein solution at 60° C. for 2 h (α-crystallins) or 37° C. for 48 h (β- and γ-crystallins) in the presence of 1 M guanidine chloride. The preformed aggregates were re-suspended in PBS at a final protein concentration of 0.2 mg ml^−1 and were treated with 500 μM sterols in 500 μM DPPC liposome and incubated at 37° C. for 24 h. […] Aggregates treated with 500 μM DPPC liposome only were used as the controls.
LC-MS analysis. […] The derived samples were analyzed by an Agilent 1290/6460 triple quadrupole LC/MS using an alternative Atmospheric Pressure Chemical Ionisation (APCI) source. […] Quantification of the western blot bands was achieved using the software GELPRO (Media Cybernetics). The presented quantitative data were calculated from three independent experiments.

Consider `CC(C)=CCC[C@@H](C)[C@H]1CC[C@@]2(C)C3=C(CC[C@]12C)[C@@]1(C)CC[C@H](O)C(C)(C)[C@@H]1CC3` [lanosterol, 3β-Hydroxy-8,24-lanostadiene; 8,24-Lanostadien-3β-ol], for which, in test [1] (HeLa cells co-transfected with LSS and crystallin mutant, 40 μM sterols 2 h, lanosterol P<1×10^−4, cholesterol P>0.1), the “percentage of cells with crystallin aggregates versus control group (rescue)” value is “significantly lower”. In test [1] (HeLa cells, 10, 20 and 40 μM lanosterol in 2% DMSO for 2 h, concentration-dependent), the “intracellular aggregation caused by cataract-causing mutant crystallin proteins” value is “significantly reduced the intracellular aggregation”. In addition, in test [2], the “amount of mutant crystallins in the soluble fractions of cell lysates” value is “increased the amounts of mutant crystallins in the soluble fractions; also recorded: increased cataract-causing mutant crystallins in soluble fractions”.
